In article PMC6934700, “Structure-Guided Design of a Fluorescent Probe for the Visualization of FtsZ in Clinically Important Gram-Positive and Gram-Negative Bacterial Pathogens” (Scientific Reports, 2019):
Like-named read-outs stand apart in the source and are kept apart here.

Experiments:
[1] = target: T1, FtsZ in E. faecalis ATCC 29212 cells (Enterococcus faecalis, UniProt O08439); experiment: FtsZ visualization by fluorescence microscopy in live cells; assay type: cell-based; settings: 1 µg/mL for 5 minutes
T1 construct: host or cells: E. faecalis ATCC 29212
Experimental: (§1) All differential interference contrast (DIC) and fluorescence microscopy experiments were conducted using an Olympus BX50 microscope equipped with an X-cite Exacte 200 W mercury lamp, a 100× Olympus UPLSAPO oil immersion objective (1.40 aperture), as well as both Chroma ET-EGFP (FITC/Cy2) and ET mCherry, Texas Red filters. Images were captured using a QImaging Retiga R3 charge-coupled device (CCD) camera and the Ocular-Version 2.0 software package (QImaging).
For visualizing FtsZ in Gram-positive bacteria using BOFP, the bacterial cells were grown to log-phase in media suitable for each individual pathogen. Specifically, S. aureus NRS705 (MRSA) was grown in tryptic soy broth (TSB), E. faecalis ATCC 29212 and E. faecium ATCC 19434 were grown in lactobacilli MRS broth, S. agalactiae ATCC 12386 and S. pneumoniae ATCC 49619 were grown in TH broth, and S. pyogenes ATCC 19615 was grown in CAMH broth supplemented with 3% (v/v) LHB. For each Gram-positive bacterial strain, a total of 1 mL of cell culture was centrifuged at 15,000 × g for 1 minute and washed 2–3 times with 1 mL of PBS. After the final wash, the pelleted cells were resuspended in 500 µL of PBS containing 1 µg/mL of BOFP and incubated in the dark for 5 minutes at room temperature. The cells were then centrifuged at 15,000 × g for 1 minute, washed twice with 1 mL of PBS, and subsequently resuspended in 200 µL of PBS. […]

[2] = test system: FtsZ in K. pneumoniae ATCC 13883 cells; experiment: as above; assay type: cell-based, Klebsiella pneumoniae; settings: 1 µg/mL for 5 minutes
Experimental: as §1
For visualizing FtsZ in Gram-negative bacteria using BOFP, E. coli ATCC 25922, K. pneumoniae ATCC 13883, P. aeruginosa ATCC 27853, and A. baumannii ATCC 19606 were grown to log-phase in CAMH broth. For each Gram-negative bacterial strain, a total of 1 mL of cell culture was centrifuged at 15,000 × g for 1 minute and washed twice with 1 mL of Tris-buffered saline (TBS) composed of 50 mM Tris-HCl (pH 7.6) and 150 mM NaCl. After the final wash, the pelleted cells were resuspended in 500 µL of TBS containing 1 µg/mL of BOFP and pentamidine isethionate (at 0.875 mg/mL for E. coli and 3.5 mg/mL for the other three strains). The resuspended cells were then incubated in the dark for 5 minutes at room temperature, centrifuged at 15,000 × g for 1 minute, washed twice with 1 mL of TBS, and subsequently resuspended in 200 µL of TBS. This final cell suspension was then prepared for microscopy as described for the Gram-positive bacterial strains. Comparative control experiments with 1 µg/mL BODIPY FL-COOH were conducted in K. pneumoniae ATCC 13883 cells as described above for BOFP.

[3] = target: T2, S. agalactiae (SagFtsZ) (Streptococcus agalactiae, UniProt Q8E183); experiment: Fluorescence anisotropy binding of BOFP to SagFtsZ; settings: for Kd: 50 mM Tris-HCl (pH 7.6), 50 mM KCl, 0.1 µM BOFP
T2 sequence (Q8E183 1-426): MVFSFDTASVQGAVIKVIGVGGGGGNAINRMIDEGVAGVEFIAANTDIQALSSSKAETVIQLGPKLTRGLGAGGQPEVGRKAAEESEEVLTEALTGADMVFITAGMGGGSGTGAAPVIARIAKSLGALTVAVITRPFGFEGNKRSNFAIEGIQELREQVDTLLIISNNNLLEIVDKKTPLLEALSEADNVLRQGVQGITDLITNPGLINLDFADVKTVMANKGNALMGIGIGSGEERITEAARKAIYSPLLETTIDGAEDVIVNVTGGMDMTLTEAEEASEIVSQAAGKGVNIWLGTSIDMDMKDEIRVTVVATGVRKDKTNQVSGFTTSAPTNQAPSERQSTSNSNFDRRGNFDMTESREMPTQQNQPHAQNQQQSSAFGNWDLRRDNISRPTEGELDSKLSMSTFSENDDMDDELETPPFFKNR
Experimental: (§2) Fluorescence anisotropy experiments were performed using an AVIV model ATF105 spectrofluorometer at 15, 25, or 37 °C. In these experiments, bandwidths were set to 4 nm in both the excitation and emission directions, with the excitation and emission wavelengths being set at 488 nm and 510 nm, respectively. BOFP (0.1 µM) was titrated with increasing concentrations (ranging from 0 to 12 µM) of FtsZ in 120 µL of buffer containing 50 mM Tris-HCl (pH 7.6) and 50 mM KCl. After each protein addition, the samples were equilibrated for 3 minutes, whereupon the fluorescence anisotropy was measured.
(§3) In this equation, r0 is the anisotropy of the protein-free compound, r∞ is the anisotropy of the compound in the presence of an infinite concentration of FtsZ, [C]tot is the total concentration of the compound, and [P]tot is the total concentration of protein with each addition. These analyses yielded the equilibrium dissociation constant (Kd) for each binding reaction.
(§4) The binding free energy (ΔG) at temperature T was derived from the corresponding Kd value determined at T using the following relationship:2 ΔG=−RTln(1/Kd)
(§5) The binding enthalpy (ΔH) and entropy (ΔS) were derived from linear fits of the ln(1/Kd) vs. 1/T plots shown in Figs. 3f and 5e using the following relationship:3 ln(1/Kd)=−ΔH/R(1/T)+ΔS/R

[4] = target: E. coli (EcFtsZ) (Escherichia coli, UniProt P0A9A6); experiment: Fluorescence anisotropy binding of BOFP to EcFtsZ; settings: for Kd: 50 mM Tris-HCl (pH 7.6), 50 mM KCl, 0.1 µM BOFP
Experimental: as §2, §3, §4, §5

[5] = from linear fit of ln(1/Kd) vs. 1/T

E. coli (EcFtsZ), sequence (P0A9A6 whole entry): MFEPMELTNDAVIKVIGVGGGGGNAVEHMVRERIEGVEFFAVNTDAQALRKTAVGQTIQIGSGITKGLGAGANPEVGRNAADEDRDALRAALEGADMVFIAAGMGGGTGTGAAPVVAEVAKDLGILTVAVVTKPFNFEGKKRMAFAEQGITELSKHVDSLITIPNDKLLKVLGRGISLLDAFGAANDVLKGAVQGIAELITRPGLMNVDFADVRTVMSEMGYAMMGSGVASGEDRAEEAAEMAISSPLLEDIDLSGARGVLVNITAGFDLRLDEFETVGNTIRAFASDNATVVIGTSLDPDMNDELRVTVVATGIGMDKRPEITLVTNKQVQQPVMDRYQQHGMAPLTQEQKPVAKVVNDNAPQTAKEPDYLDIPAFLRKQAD
T1 sequence (O08439 whole entry): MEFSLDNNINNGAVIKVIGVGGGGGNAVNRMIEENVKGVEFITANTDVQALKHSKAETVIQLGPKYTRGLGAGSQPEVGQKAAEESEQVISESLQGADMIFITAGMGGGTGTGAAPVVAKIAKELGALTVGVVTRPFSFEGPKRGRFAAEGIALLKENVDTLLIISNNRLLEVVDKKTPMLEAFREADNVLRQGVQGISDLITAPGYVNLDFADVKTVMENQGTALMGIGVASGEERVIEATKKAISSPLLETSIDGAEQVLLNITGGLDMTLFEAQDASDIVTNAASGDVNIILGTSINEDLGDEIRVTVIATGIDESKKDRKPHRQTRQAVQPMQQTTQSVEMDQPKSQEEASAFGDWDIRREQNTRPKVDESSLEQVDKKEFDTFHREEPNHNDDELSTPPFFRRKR

## CC1=CC(C)=[N+]2C1=Cc1ccc(CCC(=O)OCC(Oc3ccc(F)c(C(N)=O)c3F)c3nc(-c4ccc(C(F)(F)F)cc4)c(Br)o3)n1[B-]2(F)F (stereo not drawn) [BOFP]
[1]
  Fluorescence staining / FtsZ labeling in live cells: bright bands of fluorescence staining are clearly visible at midcell
[2]; co-treated with 3.5 mg/mL pentamidine isethionate
  Fluorescence staining / FtsZ labeling in live cells: bright fluorescence staining becomes visible both at midcell and along the cell periphery
[2]; without pentamidine isethionate
  Fluorescence staining / FtsZ labeling in live cells: little or no FtsZ labeling
[3]; 15 °C, read-out: Kd - 15 °C
  Kd: 620 ± 50 nM
[3]; 25 °C, read-out: Kd - 25 °C
  Kd: 1020 ± 90 nM
[3]; 37 °C, read-out: Kd - 37 °C
  Kd: 1310 ± 40 nM
[3]; [5]
  ΔH: -6.6 ± 0.6 kcal/mol
[4]; 15 °C, read-out: Kd - 15 °C
  Kd: 220 ± 30 nM
[4]; 25 °C, read-out: Kd - 25 °C
  Kd: 280 ± 20 nM
[4]; 37 °C, read-out: Kd - 37 °C
  Kd: 440 ± 40 nM
[4]; calculated at T = 310 K (37 °C) from Kd
  ΔG: -9.0 ± 0.1 kcal/mol
[4]; [5]
  ΔH: -5.6 ± 0.8 kcal/mol
